The results in this text go back to patent US6653478B2, “Substituted benzimidazol-2-ones as vasopressin receptor antagonists and neuropeptide Y modulators” (Ortho-McNeil Pharmaceutical, Inc., priority 2000, dated 2003).

One may read the IC50 as the concentration that gives 50% inhibition.

One test concerns the target human V1a receptor (Homo sapiens, UniProt P37288). In words: V1a functional assay, intracellular calcium mobilization in transfected HEK-293 cells (FLIPR). Set-up: expressed in transfected cells; host or cells: HEK-293. The note with it: challenge 1 nM AVP; read-out: Cell-Based Functional activity V1a IC50. The protocol: (§1) V1a, V1b or V2 Functional Assay
(§2) HEK-293 cells were grown in DMEM media supplemented with 10% FBS and glutamine (Gibco BRL, Grand Island, N.Y.). Once transfected the cells were passed biweekly by trypsinization and seeded into 96 well plates at 33,000 cells per well. HEK-293 were transfected with human V1a, V1b or V2 DNA using DMRIE-C reagent from Life Technologies, Inc., Grand Island, N.Y. Cells were tested for their responsiveness to vasopressin 48 hours after transfection. Stable lines were generated by selecting cells grown in culture media containing geneticin (500 μg/ml, Life Technologies).
(§3) Intracellular calcium mobilization was measured in HEK-293 cells transfected to express either human V1a, oxytocin or V1b receptors. Cells were plated into black 96-well Packard Clear-View plates 4 to 7 days prior to use. The cells were loaded with fluo-3 AM (Molecular Probes, Inc., Eugene, Oreg.) in buffer (25 mM Hepes, 125 mM NaCl, 1 gm/l glucose, 0.1% BSA, 5 mM KCl, 0.5 mM CaCl2, 0.5 mM MgCl2, pH 7.45) containing Pluronic (Molecular Probes) Cells were incubated with 5 μM fluo-3 AM for 1 hour shielded from light at room temperature. Intracellular fluorescence was measured using FLIPR (fluorometric imaging plate reader; Molecular Devices, Inc., Sunnyvale, Calif.). The FLIPR protocol called for images to be collected at one second intervals with 50 μl of the test compound added after the initial 10 images. An additional 70 images were then taken to detect any compound agonistic activity. FLIPR then added 50 μl of agonist peptide and collected a final 40 images for quantitating compound antagonistic activity. V1a- and V1b-expressing HEK cells were challenged with 1 nM and 0.5 nM AVP, respectively. Oxytocin-expressing HEK cells were challenged with 0.5 nM oxytocin (Peninsula Labs).
(§4) The data from the cAMP accumulation and the calcium mobilization assays are expressed as IC50 values as determined from dose response curves.
Background: A change in cytosolic calcium serves as a functional read-out for many receptors and channels.

The target in a further test is human V2 receptor (Homo sapiens, UniProt P30518). In words: V2 binding assay (3H-AVP displacement, HEK-293 membranes). On the set-up: expressed in transfected cells; host or cells: HEK-293 (membranes). The conditions noted are these: for inhibition at 1 µM: read-out: V2@1.0, % Inh. The essentials:
(§5)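 Membranes from transfected HEK-293 cells incubated 1 h at room temperature with ³H-AVP (10,000 cpm) in 50 mM Tris, 5 mM MgCl2, 0.1% BSA, pH 7.5 plus protease inhibitors. Non-specific binding set with 1.25 μM AVP. Bound tracer collected on PEI-soaked GF/C filters and counted by scintillation.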

The target in test [1] is T1, human V1b receptor (Homo sapiens, UniProt P47901).
T1 sequence (P47901 1-424): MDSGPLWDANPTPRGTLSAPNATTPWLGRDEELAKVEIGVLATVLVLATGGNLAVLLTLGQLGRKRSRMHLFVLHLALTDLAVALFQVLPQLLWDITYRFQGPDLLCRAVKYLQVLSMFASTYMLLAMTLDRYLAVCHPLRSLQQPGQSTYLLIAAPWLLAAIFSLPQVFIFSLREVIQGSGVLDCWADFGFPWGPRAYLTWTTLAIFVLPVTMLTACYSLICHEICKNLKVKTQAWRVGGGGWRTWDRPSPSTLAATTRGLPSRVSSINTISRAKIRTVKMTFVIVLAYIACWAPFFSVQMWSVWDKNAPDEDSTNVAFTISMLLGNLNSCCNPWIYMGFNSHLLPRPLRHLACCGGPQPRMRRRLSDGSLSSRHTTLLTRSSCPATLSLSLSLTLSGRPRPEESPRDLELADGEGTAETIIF
In words: V1b binding assay (3H-AVP displacement, HEK-293 membranes). Set-up: expressed in transfected cells; host or cells: HEK-293 (membranes). The conditions noted are these: for inhibition at 10 µM: read-out: V1b % Inh @10. The essentials:
as §5

Test [2] has as its target T1, human V1b receptor. In words: V1b functional assay, intracellular calcium mobilization in transfected HEK-293 cells (FLIPR). It is filed as cell-based. On the set-up: expressed in transfected cells; host or cells: HEK-293. The note with it: for IC50: challenge 0.5 nM AVP, read-out: Cell-Based Functional activity V1b IC50. The protocol:
as §1, §2, §3, §4

Counter-ions that a name gives are not always drawn.

Chain of human V1a receptor (P37288 whole entry): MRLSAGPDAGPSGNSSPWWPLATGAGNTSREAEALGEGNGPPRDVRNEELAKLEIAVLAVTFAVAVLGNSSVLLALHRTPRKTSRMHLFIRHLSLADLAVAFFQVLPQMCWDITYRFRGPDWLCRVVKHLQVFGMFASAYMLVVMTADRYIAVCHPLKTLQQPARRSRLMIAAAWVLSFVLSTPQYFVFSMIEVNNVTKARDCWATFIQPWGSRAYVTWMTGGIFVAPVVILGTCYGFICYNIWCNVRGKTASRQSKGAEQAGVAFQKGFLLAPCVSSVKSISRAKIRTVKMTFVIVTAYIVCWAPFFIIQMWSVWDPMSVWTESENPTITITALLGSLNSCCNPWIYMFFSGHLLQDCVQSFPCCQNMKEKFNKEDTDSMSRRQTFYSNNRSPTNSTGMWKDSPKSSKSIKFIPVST

In the case of “1-[(N1-Piperidinocarbothioyl-(1-L-carboxymethyl-2-phenylamino)-4-yl]-3-(3-aminopropyl)-1,3-dihydrobenzimidazol-2-one Hydrochloride [Compound 57]”, the values for the IC50 on human V1a receptor and on human V1b receptor [2] were 482 nM and 16800 nM, respectively. The “V2@1.0, % Inh” value on human V2 receptor (1.0 μM compound) is 0%. The “V1b % Inh @10” value on human V1b receptor [1] (10 μM compound) is given as 25%@10.
On to `NCCCn1c(=O)n(C2CCN(C(=S)NC(c3ccccc3)c3ccccc3)CC2)c2ccccc21` [Compound 55, 1-[(N1-Piperidinocarbothioyldiphenylmethylamino)-4-yl]-3-(3-aminopropyl)-1,3-dihydrobenzimidazol-2-one Monohydrochloride], for which the IC50 at human V1a receptor was 139 nM; on human V2 receptor it was 1250 nM; at human V1b receptor [1], 5100 nM; at human V1b receptor [2], 318 nM.
Consider `CCN(CC)CCn1c(=O)n(C2CCN(C(=S)NC(c3ccccc3)c3ccccc3)CC2)c2ccccc21` [Compound 35, 1-(N1-Piperidinocarbothioyldiphenylmethylamino-4-yl)-3-(2-diethyaminoethyl)-1,3-dihydrobenzimidazol-2-one], for which the IC50 on human V1a receptor was determined as 458 nM; at human V1b receptor [2], 9990 nM. The inhibition at 1 µM came to 44% at human V2 receptor (1.0 μM compound) and 47% on human V1b receptor [1] (1.0 μM compound, read-out: V1b@1.0, % Inh).
In the case of `N=C(N)NCCCn1c(=O)n(C2CCN(C(=S)NC(c3ccccc3)c3ccccc3)CC2)c2ccccc21` [Compound 59, 1-[(N1-Piperidinocarbothioyldiphenylmethylamino)-4-yl]-3-(3-guanidinopropyl)-1,3-dihydrobenzimidazol-2-one], the IC50 on human V1a receptor stood at 240 nM; on human V1b receptor [1], 4100 nM; at human V1b receptor [2], 6610 nM. The inhibition at 1 µM on human V2 receptor (1.0 μM compound) came out at 18%. Also, on human V1b receptor [1] (10 μM compound), the inhibition at 10 µM was 62%.
For the molecule `CCN(CC)CCn1c(=O)n(C2CCN(C(=S)NC(Cc3ccccc3)C(=O)OC)CC2)c2ccccc21` [Compound 42, 1-(N1-Piperidinocarbothioyl-(2-phenyl-1-L-carboxymethyl)amino-4-yl)-3-(2-diethyaminoethyl)-1,3-dihydrobenzimidazol-2-one], the IC50 on human V1a receptor was 810 nM. Further, at human V2 receptor (1.0 μM compound), the inhibition at 1 µM stood at 0%. Further, the inhibition at 10 µM at human V1b receptor [1] (10 μM compound) is 37%. Also, the inhibition at 30 µM on human V1b receptor [2] (HEK293, 30 μM compound, read-out: Cell-Based Functional activity V1b % Inh. @ 30) stood at 0%.
